# Data published in article PMC9655618 (Cancers, 2022).
# Legend:
# MCF-7 cells [1] = test: Drug combination assay with 4-OHTAM (MTT, Chou-Talalay); conditions: for IC50: Homo sapiens, MCF7, 72 h, read-out: IC50, cell viability inhibition, single agent
# Method: Cells were seeded at 5000 and 7500 cells, per well, respectively, and cell viability was assessed by MTT assays 72 h after treatment. Briefly, cells were incubated with constant ratio combinations of indicated test compounds by doubling dilutions of the individual drugs over a wide range of concentrations [43]. […] Dose-effect curves of the individual or combined compounds were plotted and assessed by the median effect method of Chou and Talalay [43] using Calcusyn software 2.0 (Biosoft, Cambridge, UK), thus obtaining the combination index (CI) values. CI values less than 1, equal to 1, and greater than 1 indicated synergism, addition, and antagonism, respectively.
# [2] = molecular target: T1, ERα protein in T47D E2-deprived cells (Homo sapiens, UniProt P03372); test: Immunofluorescence (confocal microscopy); assay type: cell-based; conditions: 5 µM 24 h, then E2 1 nM 30 min
# T1 construct: ERα protein expression were also explored in T47D E2-deprived BC cells; endogenous in cells; host or cells: T47D (steroid-deprived)
# Method: T47D cells were seeded with steroid-deprived FBS (10% DCC-FBS) RPMI medium supplemented with L-Glutamine/HEPES/sodium pyruvate/PEST. Then, cells were seeded at 175,000 cells/well in 5% DCC-FBS in 6-well plates containing 22 × 22 mm coverslips (Menzelgläser, vWR, Radnor, PA, USA). […] After this, cells were washed with PBS, fixed in 4% paraformaldehide (PFA; Sigma-Aldrich, St. Louis, MO, USA) for 15 min, blocked-permeabilized in PBS-0.5% BSA-0.1% Triton X-100 (Thermo Scientific, Waltham, MA, USA) for 1 h, and, finally, incubated with mouse ERα (Santa Cruz Biotech, CA, USA) and rabbit β-catenin (C2206 Sigma-Aldrich, St. Louis, MO, USA) primary antibodies in the same blocking solution overnight at 4 °C within a hand-made humid chamber. After three washing with PBS-0.5% BSA-0.1% Triton X-100 (Thermo Scientific, Waltham, MA, USA), cells were incubated with anti-mouse Alexa fluor 488 (Life Technologies, CA, USA) or anti-rabbit Alexa 647 (Life Technologies, Carlsbad, CA, USA) secondary antibodies, containing DAPI (4′,6-diamidino-2-phenylindole; Sigma-Aldrich, St. Louis, MO, USA), for 1 h at room temperature. Finally, slides were mounted with Fluormount-G® (Thermo Fisher Scientific, Waltham, MA, USA), and cells were visualized using a confocal microscope Zeiss LSM 800 (Carl Zeiss AG, Jena, Germany). The fluorescent signal was quantified by using a segmentation method for image analysis.
# [3] = tested on: ERα, pS2 and PR mRNA in Ishikawa cells; test: Quantitative real-time PCR of ERα-regulated genes; assay type: cell-based, human; conditions: for effect on E2-induced mRNA expression: 3 h pretreatment, E2 10 nM 24 h; for induction of basal mRNA level of PR gene: absence of E2
# Method: (§1) For gene expression analysis, MCF-7 and Ishikawa cells were deprived of steroid hormones by using a 10DCC-FBS medium for five days. Then, 1,500,000 cells/dish were seeded in 5DCC-FBS, followed by treatment with test compounds. Total RNA was isolated by using TRItidy G™ (Panreac Applichem ITW Reagents, Darmstadt, Germany). The concentration and purity of RNA were determined with a NanoDrop 1000 spectrophotometer (Wilmington, NC, USA). Then, 1 µg of total RNA was reversed and amplified with the iScriptTM kit (Bio-Rad) following the manufacturer’s protocol. SYBR Green PCR Master mix (Applied Biosystems, Bedford, MA, USA) reagent and exon-specific primers for ERα were used for Real-time quantitative PCR (qPCR). Gene expression was analyzed with an Mx3005P qPCR System (Agilent, Santa Clara, CA, USA), and cycle threshold values were calculated using MxPro qPCR Software (Agilent, CA, USA). Target gene expression was normalized to the expression of the 18S housekeeping gene. Data were expressed as relative expression values according to the comparative CT method for qPCR [42].
# [4] = tested on: ERα, pS2 and PR mRNA in MCF-7 cells; test: Quantitative real-time PCR of ERα-regulated genes; assay type: cell-based, human; conditions: 3 h pretreatment, E2 10 nM 24 h; 32 5 µM, 35 10 µM, ICI 0.1 µM, 4-OHTAM 1 µM
# Method: as §1
# Hs-578T cells = test: MTT cell viability assay; assay type: cell-based, human; conditions: Homo sapiens, Hs-578T, 72 h, 10%FBS growth media
# Method: (§2) Straightforward, the tetrazolium salt 3-(4,5-methyltiazol-2yl-)-2,5diphenyl-tetrazolium bromide (MTT) (Applichen, Darmstadt, Germany) was added to cells, incubated for 2–4 h at 37 °C, and lysed in 10% SDS.
# MCF-7 cells [5] = test: MTT cell viability assay; assay type: cell-based, human; conditions: Homo sapiens, MCF7, 72 h, 10%FBS growth media
# Method: as §2
# MCF-7/BUS cells = test: MTT cell viability assay; assay type: cell-based, human; conditions: Homo sapiens, MCF7/BUS; 72 h, 10%FBS growth media, MTT; read-out: IC50 (μM) MCF-7/BUS
# Method: as §2
# MCF-10A cells = test: MTT cell viability assay; assay type: cell-based, human; conditions: Homo sapiens, MCF-10A, 72 h, 10%FBS growth media
# Method: as §2
# Ishikawa cells = test: MTT cell viability assay; assay type: cell-based, human; conditions: Homo sapiens, Ishikawa, read-out: IC50 (μM) ISHIKAWA, 72 h, 10%FBS growth media
# Method: as §2
# SK-BR-3 cells = test: MTT cell viability assay; assay type: cell-based, human; conditions: Homo sapiens, SK-BR-3, 72 h, 10%FBS growth media
# Method: as §2
# BT-549 cells = test: MTT cell viability assay; assay type: cell-based, human; conditions: Homo sapiens, BT-549, 72 h, 10%FBS growth media
# Method: as §2
# MDA-MB-231 cells = test: MTT cell viability assay; assay type: cell-based, human; conditions: Homo sapiens, MDA-MB-231, 72 h, 10%FBS growth media
# Method: as §2
# [6] = combination with 4-OHTAM, constant ratio, 72 h, CI <1 synergism
Compound,IC50 (MCF-7 cells [1]) [nM],CI for ED25 (MCF-7 cells [1]; [6]),CI for ED75 (MCF-7 cells [1]; [6]),CI for ED90 (MCF-7 cells [1]; [6]),effect on ERα protein levels by confocal microscopy [2],effect on E2-induced mRNA expression [3],induction of basal mRNA level of PR gene [3] [fold],effect on E2-induced mRNA expression [4],IC50 (Hs-578T cells) [µM],IC50 (MCF-7 cells [5]) [µM],IC50 (MCF-7/BUS cells) [µM],IC50 (MCF-10A cells) [µM],IC50 (Ishikawa cells) [µM],IC50 (SK-BR-3 cells) [µM],IC50 (BT-549 cells) [µM],IC50 (MDA-MB-231 cells) [µM]
"Cc1ccc(C2=CC(O)(c3ccccc3)N(Cc3ccccc3)C2=O)cc1C (stereo not shown) [compound 32, 1-benzyl-3-(3,4-dimethylphenyl)-5-hydroxy-5-phenyl-1H-pyrrol-2(5H)-one]",690,0.762 ± 0.02,0.6725 ± 0.06,0.6395 ± 0.09,showed no effects,significative reduction of PR-activated gene expression,2.5,"inhibited E2-induced ERα, pS2 and PR mRNA expression",> 10,2.54 ± 0.49,5.32 ± 2.09,0.08,0.27 ± 0.09,1.51 ± 0.09,4.89 ± 0.96,7.63 ± 2.38
"O=C1C(c2ccc([N+](=O)[O-])cc2)=CC(O)(c2ccccc2)N1Cc1ccccc1 (stereo not shown) [compound 35, 1-benzyl-5-hydroxy-3-(4-nitrophenyl)-5-phenyl-1H-pyrrol-2(5H)-one]",2270,–,0.26 ± 0.07,0.32 ± 0.13,significantly decreased ERα protein levels both in nuclei and cytoplasmic compartments,notably downregulated E2-induced ERα and PR mRNA levels,5,"inhibited E2-induced ERα, pS2 and PR mRNA expression",8.22 ± 1.78,2.59 ± 0.34,2.64 ± 0.88,3.16 ± 0.09,1.29 ± 0.38,2 ± 0.18,4.19,9.08 ± 0.93
